Results from ChEMBL document CHEMBL4339208, “6-Bromoindolglyoxylamido derivatives as antimicrobial agents and antibiotic enhancers” (Bioorg Med Chem, 2019).
Values after ≈ are worked out from the molar mass of the structure shown. Active and inactive are the calls of the source. No cut-off for these calls is given here.

Legend:
[1] = test system: HEK293; test: (§1) Cytotoxicity against HEK293 cells measured after 20 hrs by resazurin dye based fluorescence assay; assay type: cell-based, Homo sapiens; details: Homo sapiens, HEK293, 20 h
[2] = test system: Klebsiella pneumoniae; test: Antibacterial activity against Klebsiella pneumoniae ATCC 700603 measured after 18 hrs by resazurin dye based assay; assay type: functional; details: Klebsiella pneumoniae, 700603, 18 h
[3] = test system: Escherichia coli; test: Potentiation of erythromycin-induced antibacterial activity against Escherichia coli ATCC 25922 assessed as concentration required to restore 2 ug/ml erythromycin activity measured after 18 hrs; assay type: functional
[4] = test system: Escherichia coli; test: Antibacterial activity against Escherichia coli ATCC 25922 measured after 18 hrs by broth dilution method; assay type: functional; details: ATCC 25922, 18 h
[5] = test system: Klebsiella pneumoniae; test: Potentiation of erythromycin-induced antibacterial activity against Klebsiella pneumoniae ATCC 700603 assessed as concentration required to restore 2 ug/ml erythromycin activity measured after 18 hrs; assay type: functional
[6] = test system: Acinetobacter baumannii; test: Potentiation of erythromycin-induced antibacterial activity against Acinetobacter baumannii ATCC 19606 assessed as concentration required to restore 2 ug/ml erythromycin activity measured after 18 hrs; assay type: functional, ATCC 19606 = CIP 70.34 = JCM 6841
[7] = test system: Pseudomonas aeruginosa; test: Potentiation of erythromycin-induced antibacterial activity against Pseudomonas aeruginosa ATCC 27853 assessed as concentration required to restore 2 ug/ml erythromycin activity measured after 18 hrs; assay type: functional
[8] = test system: Pseudomonas aeruginosa; test: Antibacterial activity against Pseudomonas aeruginosa ATCC 27853 measured after 18 hrs by broth dilution method; assay type: functional; details: ATCC 27853, 18 h
[9] = test system: Acinetobacter baumannii; test: Antibacterial activity against Acinetobacter baumannii ATCC 19606 measured after 18 hrs by resazurin dye based assay; assay type: functional; details: ATCC 19606 = CIP 70.34 = JCM 6841, 18 h
[10] = test system: Pseudomonas aeruginosa; test: Disruption of membrane integrity in Pseudomonas aeruginosa PAO1 assessed as increase in extracellular ATP level by luciferin-luciferase reagent based luminescence assay; assay type: functional, organism-based
[11] = test system: Staphylococcus aureus; test: Induction of membrane depolarization in Staphylococcus aureus ATCC 25923 at 10.4 uM measured after 15 mins by DiSC3(5) dye based spectrofluorometric method; assay type: functional, organism-based
[12] = test system: Staphylococcus aureus; test: Disruption of membrane integrity in Staphylococcus aureus ATCC 25923 assessed as increase in extracellular ATP level by luciferin-luciferase reagent based luminescence assay; assay type: functional, organism-based
[13] = test system: Cryptococcus neoformans; test: Antifungal activity against Cryptococcus neoformans ATCC 208821 measured after 36 hrs by resazurin dye based assay; assay type: functional; details: ATCC 208821, 36 h
[14] = test system: Erythrocyte; test: Hemolytic activity against human RBC at 32 ug/ml incubated for 10 mins under shaking condition measured after 1 hr; assay type: ADME, cell-based
[15] = test system: Acinetobacter baumannii; test: Antibacterial activity against Acinetobacter baumannii ATCC 19606 at 32 ug/ml measured after 18 hrs by resazurin dye based assay; assay type: functional, organism-based; details: ATCC 19606 = CIP 70.34 = JCM 6841
[16] = test system: Klebsiella pneumoniae; test: Antibacterial activity against Klebsiella pneumoniae ATCC 700603 at 32 ug/ml measured after 18 hrs by resazurin dye based assay; assay type: functional, organism-based
[17] = as §1; assay type: cell-based, Homo sapiens; details: human, HEK293 cells
[18] = test system: Pseudomonas aeruginosa; test: Disruption of membrane integrity in Pseudomonas aeruginosa PAO1 assessed as decrease in intracellular ATP level at 10 ug/ml by luciferin-luciferase reagent based luminescence assay relative to control; assay type: functional; design: scale not given: the % may be the effect or the level left
[19] = test system: Staphylococcus intermedius; test: Antibacterial activity against Staphylococcus intermedius 1051997 measured after 18 hrs by broth dilution method; assay type: functional; details: Staphylococcus intermedius, 1051997, 18 h
[20] = test system: Pseudomonas aeruginosa; test: Induction of membrane depolarization in Pseudomonas aeruginosa PAO1 at 10.4 uM measured after 15 mins by DiSC3(5) dye based spectrofluorometric method; assay type: functional, organism-based
[21] = test system: Pseudomonas aeruginosa; test: Potentiation of doxycycline-induced antibacterial activity against Pseudomonas aeruginosa ATCC 27853 assessed as concentration required to restore 2 ug/ml doxycycline activity measured after 18 hrs; assay type: functional
[22] = test system: Staphylococcus aureus; test: Induction of membrane depolarization in Staphylococcus aureus ATCC 25923 measured after 15 mins by DiSC3(5) dye based spectrofluorometric method; assay type: functional, organism-based
[23] = test system: Candida albicans; test: Antifungal activity against Candida albicans ATCC 90028 measured after 36 hrs; assay type: functional; details: ATCC 90028, 36 h
[24] = test system: Staphylococcus aureus; test: Antibacterial activity against Staphylococcus aureus ATCC 25923 measured after 18 hrs by broth dilution method; assay type: functional; details: ATCC 25923, 18 h
[25] = test system: Erythrocyte; test: Hemolytic activity against human RBC incubated for 10 mins under shaking condition measured after 1 hr; assay type: ADME, cell-based
[26] = test system: Acinetobacter baumannii; test: Potentiation of nalidixic acid-induced antibacterial activity against Acinetobacter baumannii ATCC 19606 assessed as concentration required to restore 2 ug/ml nalidixic acid activity measured after 18 hrs; assay type: functional, ATCC 19606 = CIP 70.34 = JCM 6841
[27] = test system: Pseudomonas aeruginosa; test: Potentiation of nalidixic acid-induced antibacterial activity against Pseudomonas aeruginosa ATCC 27853 assessed as concentration required to restore 2 ug/ml nalidixic acid activity measured after 18 hrs; assay type: functional
[28] = test system: Escherichia coli; test: Potentiation of nalidixic acid-induced antibacterial activity against Escherichia coli ATCC 25922 assessed as concentration required to restore 2 ug/ml nalidixic acid activity measured after 18 hrs; assay type: functional
[29] = test system: Klebsiella pneumoniae; test: Potentiation of nalidixic acid-induced antibacterial activity against Klebsiella pneumoniae ATCC 700603 assessed as concentration required to restore 2 ug/ml nalidixic acid activity measured after 18 hrs; assay type: functional
[30] = test system: Escherichia coli; test: Potentiation of chloramphenicol-induced antibacterial activity against Escherichia coli ATCC 25922 assessed as concentration required to restore 2 ug/ml chloramphenicol activity measured after 18 hrs; assay type: functional
[31] = test system: Klebsiella pneumoniae; test: Potentiation of chloramphenicol-induced antibacterial activity against Klebsiella pneumoniae ATCC 700603 assessed as concentration required to restore 2 ug/ml chloramphenicol activity measured after 18 hrs; assay type: functional
[32] = test system: Pseudomonas aeruginosa; test: Potentiation of chloramphenicol-induced antibacterial activity against Pseudomonas aeruginosa ATCC 27853 assessed as concentration required to restore 2 ug/ml chloramphenicol activity measured after 18 hrs; assay type: functional
[33] = test system: Acinetobacter baumannii; test: Potentiation of chloramphenicol-induced antibacterial activity against Acinetobacter baumannii ATCC 19606 assessed as concentration required to restore 2 ug/ml chloramphenicol activity measured after 18 hrs; assay type: functional, ATCC 19606 = CIP 70.34 = JCM 6841
[34] = test system: Escherichia coli; test: Potentiation of doxycycline-induced antibacterial activity against Escherichia coli ATCC 25922 assessed as concentration required to restore 2 ug/ml doxycycline activity measured after 18 hrs; assay type: functional
[35] = test system: Klebsiella pneumoniae; test: Potentiation of doxycycline-induced antibacterial activity against Klebsiella pneumoniae ATCC 700603 assessed as concentration required to restore 2 ug/ml doxycycline activity measured after 18 hrs; assay type: functional
[36] = test system: Acinetobacter baumannii; test: Potentiation of doxycycline-induced antibacterial activity against Acinetobacter baumannii ATCC 19606 assessed as concentration required to restore 2 ug/ml doxycycline activity measured after 18 hrs; assay type: functional, ATCC 19606 = CIP 70.34 = JCM 6841

CC/C(=C(\c1ccccc1)c1ccc(OCCN(C)C)cc1)c1ccccc1 [TAMOXIFEN]
IC50 [1]: 24 µM

CC[C@H]1OC(=O)[C@H](C)[C@@H](O[C@H]2C[C@@](C)(OC)[C@@H](O)[C@H](C)O2)[C@H](C)[C@@H](O[C@@H]2O[C@H](C)C[C@H](N(C)C)[C@H]2O)[C@](C)(O)C[C@@H](C)C(=O)[C@H](C)[C@@H](O)[C@]1(C)O [ERYTHROMYCIN]
MIC [2]: > 200 µM
Activity [3]: 50 µM
MIC [4]: > 200 µM
Activity [5]: 50 µM
Activity [6]: 25 µM
Activity [7]: 200 µM
MIC [8]: > 200 µM
MIC [9]: 200 µM (≈ 147 µg/mL)

O=C(NCCCNCCCCNCCCNC(=O)C(=O)c1c[nH]c2cc(Br)ccc12)C(=O)c1c[nH]c2cc(Br)ccc12
MIC [2]: > 34 µM
Activity [10]: Dose-dependent effect
Activity [11]: Active
Activity [12]: Dose-dependent effect
MIC [13]: 1.1 µM (≈ 0.773 µg/mL)
Activity [14]: Non-Toxic
Activity [15]: inactive
MIC [4]: 100 µM (≈ 70.2 µg/mL)
Activity [16]: inactive
CC50 at 20 h [17]: 5.06 µM
Activity [18]: 10%
MIC [19]: 3.12 µM (≈ 2.2 µg/mL)
Activity [20]: Active
Activity [21]: 6.25 µM
Activity [22]: Dose-dependent effect
MIC [8]: 100 µM (≈ 70.2 µg/mL)
MIC [23]: 17.2 µM (≈ 12.1 µg/mL)
MIC [24]: 6.25 µM (≈ 4.39 µg/mL)
MIC [9]: > 34 µM
HC10 [25]: > 34 µM

CCn1cc(C(=O)O)c(=O)c2ccc(C)nc21 [NALIDIXIC ACID]
MIC [2]: 100 µM (≈ 23.2 µg/mL)
Activity [26]: 200 µM
Activity [27]: 50 µM
MIC [4]: > 200 µM
Activity [28]: >200 µM
Activity [29]: 25 µM
MIC [8]: > 200 µM
MIC [9]: > 200 µM

O=C(N[C@H](CO)[C@H](O)c1ccc([N+](=O)[O-])cc1)C(Cl)Cl [CHLORAMPHENICOL]
MIC [2]: 50 µM (≈ 16.2 µg/mL)
Activity [30]: >200 µM
Activity [31]: 200 µM
Activity [32]: >200 µM
MIC [4]: > 200 µM
Activity [33]: >200 µM
MIC [19]: 3 to 6 µM (≈ 0.969 to 1.94 µg/mL)
MIC [8]: > 200 µM
MIC [24]: 1.5 to 3 µM (≈ 0.485 to 0.969 µg/mL)
MIC [9]: > 200 µM

C[C@H]1c2cccc(O)c2C(=O)C2=C(O)[C@]3(O)C(=O)C(C(N)=O)=C(O)[C@@H](N(C)C)[C@@H]3[C@@H](O)[C@@H]21.O [DOXYCYCLINE]
MIC [2]: 25 µM
Activity [34]: 6.25 µM
Activity [35]: 6.25 µM
MIC [4]: 50 µM
Activity [21]: 12.5 µM
MIC [8]: 25 µM
Activity [36]: 25 µM
MIC [9]: 12.5 µM
